According to patent US10392369B2, “N-[(pyrimidinyloxy)propanyl]benzamides” (Boehringer Ingelheim International GmbH, priority 2016, dated 2019):
Read-outs that look alike come from different tables or passages of the source.

Tests used:
OX2R = biological target: T1, OX2R (Homo sapiens, UniProt O43614); conditions: cited from earlier work
T1 sequence (O43614 1-444): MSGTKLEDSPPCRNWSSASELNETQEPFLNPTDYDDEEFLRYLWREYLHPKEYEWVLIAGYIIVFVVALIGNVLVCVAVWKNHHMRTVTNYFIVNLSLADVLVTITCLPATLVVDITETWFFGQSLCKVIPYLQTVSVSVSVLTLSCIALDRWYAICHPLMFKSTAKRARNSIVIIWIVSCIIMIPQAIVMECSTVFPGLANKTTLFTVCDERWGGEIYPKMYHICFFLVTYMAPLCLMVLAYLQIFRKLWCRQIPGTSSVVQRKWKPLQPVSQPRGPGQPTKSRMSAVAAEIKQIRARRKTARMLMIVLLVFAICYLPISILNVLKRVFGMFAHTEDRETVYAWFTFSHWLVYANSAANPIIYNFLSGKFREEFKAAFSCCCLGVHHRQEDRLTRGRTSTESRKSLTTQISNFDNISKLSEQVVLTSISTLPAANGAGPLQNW

human Orexin 1 receptor = biological target: T2, human Orexin 1 receptor (Homo sapiens, UniProt O43613); test: Assay A: OX1R IP1 (in vitro OX1R potency); format: cell-based; conditions: for Kb: Table 3, read-out: Assay A OX1R Kb (Orexin A concentration); for OX1R selectivity compared to Example 14 in WO2016/034882 / OX1R selectivity over OX2R (selectivity ratio OX2R Kb/OX1R Kb) compared to Example 91 in WO2016/034882 / OX1R potency compared to Example 91 in WO2016/034882: in words; for OX1R selectivity compared to Example 14 in WO2016/034882: versus Example 14 in WO2016/034882; for OX1R selectivity over OX2R (selectivity ratio OX2R Kb/OX1R Kb) compared to Example 91 in WO2016/034882 / OX1R potency compared to Example 91 in WO2016/034882: versus Example 91 in WO2016/034882
T2 construct: stably expressing the full-length human Orexin 1 receptor; expressed in transfected cells; host or cells: CHO-K1 (CHO-K1/hOx1), co-expressing the aequorin photoprotein
T2 sequence (O43613 1-425): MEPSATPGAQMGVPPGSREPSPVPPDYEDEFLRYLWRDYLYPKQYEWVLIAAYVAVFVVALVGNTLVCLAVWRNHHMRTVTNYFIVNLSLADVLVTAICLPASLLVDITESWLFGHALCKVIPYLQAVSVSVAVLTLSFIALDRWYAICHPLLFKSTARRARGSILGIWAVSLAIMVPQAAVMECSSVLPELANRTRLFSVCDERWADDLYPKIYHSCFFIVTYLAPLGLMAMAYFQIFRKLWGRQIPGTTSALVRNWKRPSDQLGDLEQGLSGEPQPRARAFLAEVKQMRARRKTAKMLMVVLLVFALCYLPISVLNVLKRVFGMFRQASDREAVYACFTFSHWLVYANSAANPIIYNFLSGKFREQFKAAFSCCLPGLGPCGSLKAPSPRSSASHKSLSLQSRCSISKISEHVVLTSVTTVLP
Source text: Activation of the orexin receptors expressed in cell lines results in an increase in intracellular IP3 concentration. IP1, a downstream metabolite of IP3, accumulates in cells following receptor activation and is stable in the presence of LiCl. Using Homogeneous Time-Resolved Fluorescence technology with Lumi4-Tb cryptate (commercially available from Cisbio Bioassay.) and a suitable fluorescence plate reader. […] This technique is used to characterize pharmacological modification of the orexin receptors.
A. In Vitro Testing of OX1R Potency: OX1R IP1
IP1 measurements are performed in CHO-K1 cells stably expressing the full-length human Orexin 1 receptor and the aequorin photoprotein. Cells are cultivated in Ham's nutrient mixture F12 medium with 10% fetal calf serum, in a 37° C., 95% humidity and 5% CO2 incubator. The CHO-K1/hOx1 cell mass is expanded to larger cell numbers. The cells are obtained as frozen cells in cryo-vials and stored until use at −150° C. […] In preparation for the assay, 24 hours before the assay, the cells are thawed at 37° C. and immediately diluted with cell culture medium. After centrifugation, the cell pellet is re-suspended in medium and then distributed into the assay plates with a density of 10000 cells/25 μL per well. The plates are incubated for one hour at room temperature to reduce edge effects before they are incubated for 24 hours at 37° C./5% CO2. Compounds are prepared by an 8-point serial dilution in DMSO and a final dilution step into assay buffer (HBSS with 20 mM HEPES, 0.1% BSA and 50 mM LiCl, pH 7.4) to ensure a final DMSO concentration of 1% in the assay.
(§1) On the day of the assay, cells in the plate are washed twice with 60 μL assay buffer (20 μL buffer remained in the wells after washing), followed by adding 5 μL per well of compounds diluted in assay buffer. After 15 minutes of incubation at room temperature 5 μL per well of Orexin A peptide (final concentration: 0.5 nM and/or 50 nM) dissolved in assay buffer is added to the assay plate. The assay plate is incubated for 60 minutes at 37° C. Then 5 μl per well of Anti-IP1-Cryptate Tb solution and 5 μl per well of IP1-d2 dilution are added and the plate is incubated for a further 60 minutes light protected at room temperature.
(§2) 8-point four parametric non-linear curve fitting and determination of IC50 values and Hill slopes is performed using a regular analysis software e.g. AssayExplorer (Accelrys). In order to establish an agonist concentration independent parameter, Kb values are calculated using the following equation: IC50/((2+(A/EC50)^n)^1/n−1) (with A=concentration agonist, EC50=EC50 agonist, n=Hill slope agonist).

human orexin 2 receptor = biological target: T3, human orexin 2 receptor (Homo sapiens, UniProt O43614); test: Assay B: OX2R IP1 (in vitro OX2R potency); format: cell-based; conditions: Table 3; 0.5 nM Orexin A
T3 construct: stably expressing the full-length human orexin 2 receptor; expressed in transfected cells; host or cells: CHO-K1 (CHO-K1/hOx2), co-expressing the aequorin photoprotein
T3 sequence (O43614 1-444): T1 sequence (O43614 1-444)
Source text: Activation of the orexin receptors expressed in cell lines results in an increase in intracellular IP3 concentration. IP1, a downstream metabolite of IP3, accumulates in cells following receptor activation and is stable in the presence of LiCl. Using Homogeneous Time-Resolved Fluorescence technology with Lumi4-Tb cryptate (commercially available from Cisbio Bioassay.) and a suitable fluorescence plate reader. […] Chem. Genomics 2009, 3, 22-32. This technique is used to characterize pharmacological modification of the orexin receptors.
B. In Vitro Testing of OX2R Potency: OX2R IP1
IP1 measurements are performed in CHO-K1 cells stably expressing the full-length human orexin 2 receptor and the aequorin photoprotein. Cells are cultivated in Ham's nutrient mixture F12 medium with 10% fetal calf serum, in a 37° C., 95% humidity and 5% CO2 incubator. The CHO-K1/hOx2 cell mass is expanded to larger cell numbers. The cells are obtained as frozen cells in cryo-vials and stored until use at −150° C. The viability of the cells after thawing is >90%. In preparation for the assay, 24 hours before the assay, the cells are thawed at 37° C. and immediately diluted with cell culture medium. After centrifugation, the cell pellet is resuspended in medium and then distributed into the assay plates with a density of 5000 cells/25 μL per well. The plates are incubated for one hour at room temperature to reduce edge effects before they are incubated for 24 hours at 37° C./5% CO2. Compounds are prepared by a 8-point serial dilution in DMSO and a final dilution step into assay buffer (HBSS with 20 mM HEPES, 0.1% BSA and 50 mM LiCl, pH 7.4) to ensure a final DMSO concentration of 1% in the assay.
as §1, with “concentration: 0.5 nM) dissolved” for “concentration: 0.5 nM and/or 50 nM) dissolved”, “are added to all well of the plate and the” for “are added and the”, “room temperature. The emission at 615 nm and 665 nm (Excitation wavelength: 320 nm) are measured using an EnVision reader (PerkinElmer). The ratio between the emission at 665 nm and 615 is calculated by the reader.” for “room temperature.”
as §2, with “of […]” for “of IC50”, “slope agonist) (see P. Leff, I. G. Dougall, Trends Pharmacol. Sci. 1993, 14(4), 110-112).” for “slope agonist).”

| Compound | OX2R pIC50 (OX2R; Table 3 of WO2016/034882) | IC50 (OX2R; corresponds to pIC50 of Table 3 of WO2016/034882) [nM] | Kb (human Orexin 1 receptor; 0.5 nM Orexin A) [nM] | Kb (human Orexin 1 receptor; 50 nM Orexin A) [nM] | Kb (human orexin 2 receptor) [nM] | OX1R selectivity compared to Example 14 in WO2016/034882 (human Orexin 1 receptor) | OX2R Kb/OX1R Kb (human Orexin 1 receptor) | OX1R selectivity over OX2R (selectivity ratio OX2R Kb/OX1R Kb) compared to Example 91 in WO2016/034882 (human Orexin 1 receptor) | OX1R potency compared to Example 91 in WO2016/034882 (human Orexin 1 receptor) |
| --- | --- | --- | --- | --- | --- | --- | --- | --- | --- |
| CC[C@@H](CNc1ncc(C(F)(F)F)cn1)N(C)C(=O)c1c(F)cccc1-n1nccn1 [Ex 91 in WO2016/ 034882] | < 5.1 | > 7950 |  |  |  |  |  |  |  |
| CCN(C(=O)c1ccc(F)cc1-c1ncccn1)[C@@H](C)COc1ncc(C(F)(F)F)cn1 [Example 25] |  |  | 0.81 | 1.4 | 272 |  |  |  |  |
| CCN(C(=O)c1ccccc1-c1ncccn1)[C@@H](C)COc1ncc(C(F)(F)F)cn1 [Example 28] |  |  | 0.62 | 0.74 | 176 | increase in OX1R selectivity |  |  |  |
| CCN(C(=O)c1cccc(F)c1-n1nccn1)[C@@H](C)COc1ncc(Br)cn1 [Example 29] |  |  | 2 |  | 350 |  | 178 | increase in OX1R selectivity |  |
| CCN(C(=O)c1ccc(OC)cc1-n1nccn1)[C@@H](C)COc1ncc(C(F)(F)F)cn1 [Example 30] |  |  | 1.8 |  | 579 |  | 322 | increase | increase |
| CCN(C(=O)c1ccccc1-c1cnc(C)o1)[C@@H](C)COc1ncc(C(F)(F)F)cn1 [Example 31] |  |  | 6 |  | 746 |  | 124 | increase in OX1R selectivity |  |
| CCN(C(=O)c1cccc(F)c1-c1ncccn1)[C@@H](C)COc1ncc(C(F)(F)F)cn1 [Example 32] |  |  | 0.61 | 0.46 | 188 | increase in OX1R selectivity |  |  |  |
| CCN(C(=O)c1c(-n2nccn2)ccc(C)c1F)[C@@H](C)COc1ncc(C(F)(F)F)cn1 [Example 34] |  |  | 1.8 |  | 431 |  | 239 | increase in OX1R selectivity | increase in OX1R potency |
| CCN(C(=O)c1ccc(F)c(F)c1-n1nccn1)[C@@H](C)COc1ncc(C(F)(F)F)cn1 [Example 35] |  |  | 2.5 |  | 455 |  | 182 | more selective |  |
| CCN(C(=O)c1ccccc1-c1ncco1)[C@@H](C)COc1ncc(C(F)(F)F)cn1 [Example 36] |  |  | 3.2 |  | 511 |  | 160 | increase in OX1R selectivity |  |
